Measured values published in PMC7567103 (Nature Communications, 2020).

Legend:
GHRHR D193A = biological target: T1, GHRHR D193A (Homo sapiens, UniProt Q02643, D193A); assay: cAMP accumulation, D193A; assay type: cell-based; details: mean ± SEM, n ≥ 3
T1 construct: GHRHR(23-423)-; HA signal peptide (replaces native signal M1-G22) (N); expressed in transfected cells; host or cells: HEK 293T, pcDNA3.1, transient
Source text: Fig. 2 Molecular recognition of GHRH by GHRHR and comparison of that with LA-PTH–PTH1R and GLP-1–GLP-1R. a Detailed interaction between GHRH and the TMD pocket of GHRHR with hydrogen bonds shown as dotted lines. b, c Pairwise comparison of GHRH bound to GHRHR with GLP-1 and LA-PTH in complex with their corresponding receptors, showing the relative positions of peptide ligands. Lime green, GHRHR; blue, GHRH; red, PTH1R and LA-PTH; purple, GLP-1R and GLP-1. d–f The effects of mutation in the ligand-binding pocket on cAMP accumulation. cAMP levels were measured in wild-type (WT) receptor and alanine mutants in ECL1, 2, and 3 (d), TM1, 2, and 3 (e), and TM5, 6, and 7 (f). cAMP signals were normalized to the maximum response of WT and concentration–response curves were analyzed using a three-parameter logistic equation. Data shown are means ± S.E.M. of at least three independent experiments (n = 3–5), conducted in triplicate. Source data are provided as a Source data file.
GHRH-stimulated cAMP accumulation was measured by a LANCE Ultra cAMP kit (PerkinElmer). […] After 1 h RT incubation, TR-FRET signals (excitation: 320 nm, emission: 615 and 665 nm) were measured by an EnVision (PerkinElmer).

GHRHR(23-423) (WT) = biological target: T2, GHRHR(23-423) (WT) (Homo sapiens, UniProt Q02643); assay: whole cell binding, competitive inhibition of 125I-GHRH (Supplementary Fig. 2c); details: competition with 80 pM 125I-GHRH; whole HEK 293T cells, RT 3 h; mean ± SEM, n = 7-8
T2 construct: 24 h after transfection with GHRHR(23-423), GHRHR(23-405), GHRHR(23-405)-LgBiT-2MBP, or HA-Flag-GHRHR (WT and mutants); HA signal peptide (replaces native signal M1-G22) (N); expressed in transfected cells; host or cells: HEK 293 T
T2 sequence (Q02643 23-423): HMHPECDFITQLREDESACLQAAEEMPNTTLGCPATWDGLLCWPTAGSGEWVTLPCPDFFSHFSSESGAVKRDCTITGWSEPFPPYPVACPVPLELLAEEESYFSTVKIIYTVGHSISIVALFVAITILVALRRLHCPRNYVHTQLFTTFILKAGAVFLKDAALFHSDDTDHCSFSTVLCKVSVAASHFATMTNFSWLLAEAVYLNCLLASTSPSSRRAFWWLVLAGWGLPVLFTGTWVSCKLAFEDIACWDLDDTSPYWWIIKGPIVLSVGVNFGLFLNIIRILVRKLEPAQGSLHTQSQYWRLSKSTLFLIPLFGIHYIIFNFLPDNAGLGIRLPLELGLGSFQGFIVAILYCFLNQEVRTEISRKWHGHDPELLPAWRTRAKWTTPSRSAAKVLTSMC
Procedure: This assay was conducted in 96-well Iso-plates (PerkinElmer) coated with poly-D-lysine hydrobromide (Sigma-Aldrich). Twenty-four hour after transfection with GHRHR(23-423) or GHRHR(23-405)-LgBiT-2MBP, HEK 293 T cells were washed twice, and incubated with blocking buffer (DMEM medium supplemented with 33 mM HEPES, and 0.1% (w/v) BSA, pH 7.4) for 2 h at 37 °C. Then, radiolabeled ^125I-GHRH (80 pM, Phoenix Biotech) and seven decreasing concentrations of unlabeled peptide (10 μM, […]) were added and competitively reacted with the cells in binding buffer (PBS supplemented with 10% (w/v) BSA, pH 7.4) at RT for 3 h. Cells were washed with ice-cold PBS and lysed by 50 μL lysis buffer (PBS supplemented with 20 mM Tris-HCl and 1% (v/v) Triton X-100, pH 7.4). Finally, 150 μL of scintillation cocktail (OptiPhase SuperMix, PerkinElmer) was employed and radioactivity (counts per minute) read in a scintillation counter (MicroBeta[2] plate counter, PerkinElmer).
93 of transfection. Data are normalized by the WT receptor and fitted with a three-
94 parameter logistic equation. All values are means ± S.E.M. of at least three […]
Binding affinity is quantified by
97 reduction of radioactivity (counts per minute, CPM) and normalized to the […]
231 Binding data were analyzed using a three-parameter logistic equation to […]
234 determine statistical difference. *P<0.01; ND, not determined.

T1 sequence (Q02643 23-423 D193A): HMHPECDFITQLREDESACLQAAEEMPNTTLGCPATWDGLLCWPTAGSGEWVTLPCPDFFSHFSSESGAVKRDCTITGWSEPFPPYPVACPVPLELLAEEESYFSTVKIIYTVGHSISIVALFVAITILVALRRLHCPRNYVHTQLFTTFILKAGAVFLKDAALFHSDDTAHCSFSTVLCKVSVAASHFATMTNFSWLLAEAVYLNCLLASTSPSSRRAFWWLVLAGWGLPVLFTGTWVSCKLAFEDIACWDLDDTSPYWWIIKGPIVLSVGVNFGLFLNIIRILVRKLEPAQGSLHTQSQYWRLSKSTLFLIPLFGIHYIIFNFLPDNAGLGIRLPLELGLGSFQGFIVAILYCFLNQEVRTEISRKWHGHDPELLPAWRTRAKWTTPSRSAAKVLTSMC

CC[C@H](C)[C@H](NC(=O)[C@H](C)NC(=O)[C@H](CC(=O)O)NC(=O)[C@H](C)NC(=O)[C@@H](N)Cc1ccc(O)cc1)C(=O)N[C@@H](Cc1ccccc1)C(=O)N[C@H](C(=O)N[C@@H](CC(N)=O)C(=O)N[C@@H](CO)C(=O)N[C@@H](Cc1ccc(O)cc1)C(=O)N[C@@H](CCCNC(=N)N)C(=O)N[C@@H](CCCCN)C(=O)N[C@H](C(=O)N[C@@H](CC(C)C)C(=O)NCC(=O)N[C@@H](CCC(N)=O)C(=O)N[C@@H](CC(C)C)C(=O)N[C@@H](CO)C(=O)N[C@@H](C)C(=O)N[C@@H](CCCNC(=N)N)C(=O)N[C@@H](CCCCN)C(=O)N[C@@H](CC(C)C)C(=O)N[C@@H](CC(C)C)C(=O)N[C@@H](CCC(N)=O)C(=O)N[C@@H](CC(=O)O)C(=O)N[C@H](C(=O)N[C@@H](CCSC)C(=O)N[C@@H](CO)C(=O)N[C@@H](CCCNC(=N)N)C(=O)N[C@@H](CCC(N)=O)C(=O)N[C@@H](CCC(N)=O)C(=O)NCC(=O)N[C@@H](CCC(=O)O)C(=O)N[C@@H](CO)C(=O)N[C@@H](CC(N)=O)C(=O)N[C@@H](CCC(N)=O)C(=O)N[C@@H](CCC(=O)O)C(=O)N[C@@H](CCCNC(=N)N)C(=O)NCC(=O)N[C@@H](C)C(=O)N[C@@H](CCCNC(=N)N)C(=O)N[C@@H](C)C(=O)N[C@@H](CCCNC(=N)N)C(=O)N[C@@H](CC(C)C)C(N)=O)[C@@H](C)CC)C(C)C)[C@@H](C)O [GHRH, Growth hormone-releasing hormone]
EC50 (GHRHR D193A): 0.115 nM
Emax (GHRHR D193A): 101.42±1.02 % WT
IC50 (GHRHR(23-423) (WT)): 2.75 nM
